PubChem BioAssay (NCI)
Several values for one entry are separate records, joined by “and”; a condition that tells them apart may be missing. Identical values can stand only once.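 Briefly, cells in 96-well plates were exposed to five compound concentrations for 48 h, and endpoints were estimated by linear interpolation. At the GI50, growth is halved. TGI: total growth inhibition.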

Columns and labels:
Experiment in all cases: NCI tumour cell line growth inhibition, 48 h
UACC-257 melanoma = tested on: UACC-257 melanoma
OVCAR-4 ovarian = tested on: OVCAR-4 ovarian
NCI/ADR-RES ovarian = tested on: NCI/ADR-RES ovarian
SNB-75 CNS = tested on: SNB-75 CNS
A549 NSCLC = tested on: A549 NSCLC
IGROV1 ovarian = tested on: IGROV1 ovarian
OVCAR-8 ovarian = tested on: OVCAR-8 ovarian
HCC-2998 colon = tested on: HCC-2998 colon
P388 leukemia = tested on: P388 leukemia
SK-MEL-2 melanoma = tested on: SK-MEL-2 melanoma
786-0 renal = tested on: 786-0 renal
U251 CNS = tested on: U251 CNS
RXF 393 renal = tested on: RXF 393 renal
MOLT-4 leukemia = tested on: MOLT-4 leukemia
XF 498 CNS = tested on: XF 498 CNS
LOX IMVI melanoma = tested on: LOX IMVI melanoma
DMS 114 small cell lung = tested on: DMS 114 small cell lung
EKVX NSCLC = tested on: EKVX NSCLC
SK-OV-3 ovarian = tested on: SK-OV-3 ovarian
HL-60(TB) leukemia = tested on: HL-60(TB) leukemia
NCI-H23 lung = tested on: NCI-H23 lung
MDA-MB-435 = tested on: MDA-MB-435
SF-268 CNS = tested on: SF-268 CNS
KM20L2 colon = tested on: KM20L2 colon
COLO 205 colon = tested on: COLO 205 colon
OVCAR-5 ovarian = tested on: OVCAR-5 ovarian

O=CC(NC(=O)N(CCCl)N=O)C(O)C(O)C(O)CO (stereo unspecified)
GI50 (UACC-257 melanoma): > 625 µM | TGI (UACC-257 melanoma): > 1250 µM | GI50 (OVCAR-4 ovarian): > 625 µM | TGI (OVCAR-4 ovarian): > 1250 µM | GI50 (NCI/ADR-RES ovarian): 499 µM and > 1250 µM | TGI (NCI/ADR-RES ovarian): 625 µM and > 1250 µM | GI50 (SNB-75 CNS): 146 µM | TGI (SNB-75 CNS): 625 µM and 1050 µM | GI50 (A549 NSCLC): 162 µM and 584 µM | TGI (A549 NSCLC): 625 µM and > 1250 µM | GI50 (IGROV1 ovarian): 460 µM and > 1250 µM | TGI (IGROV1 ovarian): 625 µM and > 1250 µM | GI50 (OVCAR-8 ovarian): > 625 µM and 587 µM | TGI (OVCAR-8 ovarian): > 1250 µM | GI50 (HCC-2998 colon): > 625 µM | TGI (HCC-2998 colon): > 1250 µM | TGI (P388 leukemia): > 1250 µM | GI50 (SK-MEL-2 melanoma): > 625 µM | TGI (SK-MEL-2 melanoma): > 1250 µM | TGI (786-0 renal): 593 µM | GI50 (U251 CNS): 69.2 µM and 105 µM | TGI (U251 CNS): 625 µM and > 1250 µM | GI50 (RXF 393 renal): 417 µM | TGI (RXF 393 renal): 625 µM and > 1250 µM | GI50 (MOLT-4 leukemia): 104 µM | TGI (MOLT-4 leukemia): 625 µM and > 1060 µM | TGI (XF 498 CNS): 415 µM and > 1250 µM | GI50 (LOX IMVI melanoma): 50 µM and 303 µM and 78.7 µM | TGI (LOX IMVI melanoma): 384 µM and > 1250 µM and 661 µM | GI50 (DMS 114 small cell lung): 218 µM and > 1250 µM | TGI (DMS 114 small cell lung): 625 µM and > 1250 µM | GI50 (EKVX NSCLC): > 625 µM | TGI (EKVX NSCLC): > 1250 µM | GI50 (SK-OV-3 ovarian): 279 µM | TGI (SK-OV-3 ovarian): 576 µM and > 1250 µM | GI50 (HL-60(TB) leukemia): 144 µM and 420 µM | TGI (HL-60(TB) leukemia): 625 µM and > 1250 µM and 1070 µM | GI50 (NCI-H23 lung): 233 µM and > 1250 µM | TGI (NCI-H23 lung): 625 µM and > 1250 µM | TGI (MDA-MB-435): > 1250 µM | GI50 (SF-268 CNS): 19.8 µM and 137 µM | GI50 (KM20L2 colon): > 625 µM | TGI (KM20L2 colon): > 1250 µM | GI50 (COLO 205 colon): > 625 µM | TGI (COLO 205 colon): > 1250 µM | GI50 (OVCAR-5 ovarian): > 625 µM
